In data set [1] the test system is Septoria tritici. The data set can be described thus: Example J: Septoria tritici test (wheat) / preventive. It counts as in vivo.
Data set [2] concerns Puccinia recondita. The data set is described as follows: Example E: Puccinia test (wheat) / preventive. Type of data set: in vivo.
The subject of data set [3] is Phytophthora infestans. Type of data set: in vivo.
The subject of data set [4] is Fusarium graminearum. The data set can be described thus: microbe, parasite or virus in culture. Type of data set: cell-based. The settings on record: at 50 μM.
Data set [5] has as its system Fusarium nivale (var. majus). The data set can be described thus: Example K: Fusarium nivale (var. majus) test (wheat) / preventive. It counts as in vivo. The settings on record: 500 ppm of active ingredient, preventive spray, evaluated 5 days after inoculation. As to the method:
After the spray coating has been dried, the plants are slightly injured by using a sandblast and afterwards they are sprayed with a conidia suspension of Fusarium nivale (var. majus).
The test is evaluated 5 days after the inoculation.

Data set [6] relates to Leptosphaeria nodorum. The data set can be described thus: Example C: Leptosphaeria test (wheat) / preventive. The following applies: in vivo. Type of data set: in vivo.
For data set [7], the system named is Sphaerotheca fuliginea. The data set is described as follows: Example A: Sphaerotheca test (cucumber) / preventive. It counts as in vivo.
Data set [8] concerns Plasmopara viticola. The data set can be described thus: Example H: Plasmopara test (grapevines) / preventive. It counts as in vivo.
The nature of data set [9]: Determination of log P values by HPLC on a reverse phase column (C18), EEC-Directive 79/831 Annex V.A8 (Methods A, B, C). The settings on record: for chromatographic logP: reverse phase C18 HPLC column. Type of data set: physicochemical. A digest of the protocol: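 Three C18 chromatographic methods following EEC-Directive 79/831 Annex V.A8 gave the logP values. Method C (UPLC, 2.1 mm column) ran at 40 °C and 0.8 mL/min with a 3.25 min 10–95% acetonitrile gradient. Methods A and B both ran at 55 °C and 2.0 mL/min, with gradients of 10–95% in 4.25 min and 5–95% in 1.70 min.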

In data set [10] the test system is Pyrenophora teres. The data set can be described thus: Example D: Pyrenophora test (barley) / preventive. It counts as in vivo.
Data set [11] deals with Uromyces appendiculatus. The data set can be described thus: Example B: Uromyces test (beans) / preventive. It counts as in vivo. The settings on record: in vivo.
The test system of data set [12] is Venturia inaequalis. The data set is described as follows: Example I: Venturia test (apples) / preventive. The settings on record: 100 ppm of active ingredient, preventive spray, evaluated 10 days after inoculation.
Experimental: After the spray coating has dried on, the plants are inoculated with an aqueous conidia suspension of the causal agent of apple scab (Venturia inaequalis) and then remain for 1 day in an incubation cabinet at approximately 20° C. and a relative atmospheric humidity of 100%.
The plants are then placed in a greenhouse at approximately 21° C. and a relative atmospheric humidity of approximately 90%.
The test is evaluated 10 days after the inoculation.
For data set [13], the system named is Fusarium graminearum. Type of data set: in vivo.
For data set [14], the system named is DON/Acetyl-DON production by Fusarium graminearum. The data set is described as follows: microbe, parasite or virus in culture. It counts as cell-based.
Data set [15] concerns Pyricularia oryzae. Type of data set: in vivo.
Setting [16] is: Method A: HPLC, reverse phase C18, acetonitrile (0.1% formic acid)/water (0.09% formic acid) gradient.
[17] abbreviates: Method B (HPLC, reverse phase C18).

Each structure is given as a SMILES string. Where two headings read alike, the source gives them in different places.

A word on the LogP: it is the decadic logarithm of the partition coefficient of the neutral form, usually between octanol and water. A low value points to a more hydrophilic compound. As to `CCC(=O)N(C(=O)CC)c1cc(-c2c(-c3ccc(F)cc3)nn3c2OCCC3)ccn1` [Example 53], the efficacy in [1] (in vivo) is 75%; in data set [2] (in vivo), 95%; in data set [3] (in vivo) it was 95%; in [5], 100%; in data set [6], 90%; in data set [7] (in vivo), 95%. Besides, the efficacy in [8] (in vivo) was 98%; in [10] (in vivo), 100%; in data set [11], 74%; in data set [12], 100%; in data set [13] (in vivo), 100%; in data set [15] (in vivo), 90%. Further, the “Growth inhibition of Fusarium graminearum in %” value (shortened to “Growth inhibition … in %”) in data set [4] is listed as 79%. For the same compound, the lipophilicity (LogP) in [9] (setting [16]) is recorded as 2.74. Moreover, the “Inhibition of DON/AcDON in %” value in data set [14] (at 50 μM) is on record as 100%.
As for `CC(C)C(=O)Nc1cc(-c2c(-c3ccccc3)nn3c2OCCC3)ccn1` [Example 8], the efficacy in data set [1] (in vivo) was 80%; in [2] (in vivo), 100%; in data set [3] (in vivo), 95%; in data set [5], 93%; in data set [6], 95%; in data set [7] (in vivo) it was 100%. The efficacy is 100% in data set [8] (in vivo); 95% in data set [10] (in vivo); 94% in [11]; 98% in data set [12]; 100% in data set [13] (in vivo); 94% in data set [15] (in vivo). In addition, the LogP in [9] (setting [17]) amounted to 1.39.
Take `CCC(=O)Nc1cc(-c2c(-c3ccc(F)cc3F)nn3c2OCCC3)ccn1` [Example 35]: the efficacy in [1] (in vivo) was found to be 100%; in data set [2] (in vivo), 100%; in data set [3] (in vivo) it was 99%; in [5], 100%; in [6], 80%; in data set [8] (in vivo) it was 95%. In addition, the efficacy came out at 95% in data set [10] (in vivo); 92% in data set [11]; 100% in data set [12]; 100% in data set [13] (in vivo); 94% in [15] (in vivo). For the same compound, the “Growth inhibition … in %” value in data set [4] came out at 100%. In [9] (setting [17]), this compound showed a LogP of 1.34. Moreover, the “Inhibition of DON/AcDON in %” value in data set [14] (at 50 μM) is 99%.
Turning to `CCC(=O)Nc1cc(-c2c(-c3ccccc3)nn3c2OCCC3)ccn1` [Example 6], the efficacy in [1] (in vivo) came out at 100%; in data set [2] (in vivo), 100%; in [3] (in vivo) it was 96%; in data set [5], 100%; in data set [6] it was 90%; in data set [7] (in vivo), 98%. For the same compound, the efficacy in data set [8] (in vivo) is 94%; in [10] (in vivo), 95%; in data set [11], 89%; in data set [12], 100%; in data set [13] (in vivo) it was 100%; in data set [15] (in vivo) it was 94%. The LogP in data set [9] (setting [17]) is 1.16.
As for `CC(C)C(=O)Nc1cc(-c2c(-c3ccc(F)cc3F)nn3c2OCCC3)ccn1` [Example 37], the efficacy was 88% in data set [1] (in vivo); 100% in data set [2] (in vivo); 95% in data set [3] (in vivo); 100% in [5]; 70% in data set [6]; 100% in data set [7] (in vivo). Moreover, the efficacy in data set [8] (in vivo) is 100%; in data set [10] (in vivo), 95%; in data set [11] it was 94%; in data set [12], 100%; in [13] (in vivo), 100%; in data set [15] (in vivo), 94%. In data set [9] (setting [17]), this compound returned a LogP of 1.6.
Turning to `CCC(=O)N(C(=O)C1CC1)c1cc(-c2c(-c3ccc(F)cc3)nn3c2OCCC3)ccn1` [Example 54], the efficacy in [1] (in vivo) is recorded as 100%; in data set [2] (in vivo), 95%; in data set [3] (in vivo) it was 99%; in data set [5] it was 100%; in data set [6] it was 80%; in data set [7] (in vivo), 100%. Also, the efficacy in data set [8] (in vivo) was found to be 100%; in [10] (in vivo), 95%; in data set [12], 95%; in [13] (in vivo), 100%; in data set [15] (in vivo) it was 90%. The compound also showed a lipophilicity (LogP) in data set [9] (setting [16]) of 2.77.
Regarding `CCC(=O)N(C(C)=O)c1cc(-c2c(-c3ccc(F)cc3)nn3c2OCCC3)ccn1` [Example 52], the efficacy amounted to 100% in [1] (in vivo); 95% in [2] (in vivo); 95% in data set [3] (in vivo); 100% in [5]; 80% in data set [6]; 95% in [7] (in vivo). Moreover, the efficacy amounted to 84% in [8] (in vivo); 95% in data set [10] (in vivo); 98% in data set [12]; 100% in [13] (in vivo); 95% in data set [15] (in vivo). Besides, in data set [9] (setting [16]), the LogP came to 2.4.
`CC(C)CC(=O)Nc1cc(-c2c(-c3ccc(F)cc3)nn3c2OCCC3)ccn1` [Example 25]: the efficacy in data set [1] (in vivo) was 80%; in data set [2] (in vivo), 100%; in data set [3] (in vivo), 93%; in data set [5], 100%; in data set [6], 95%; in [7] (in vivo), 100%. Moreover, the efficacy came out at 98% in data set [8] (in vivo); 100% in data set [10] (in vivo); 94% in data set [11]; 100% in data set [12]; 100% in data set [13] (in vivo); 100% in data set [15] (in vivo). The compound also registered a LogP in data set [9] (setting [17]) of 1.82.
In the case of `CCC(=O)Nc1cc(-c2c(-c3ccc(F)cc3)nn3c2OCCC3C)ccn1` (centres unmarked) [Example 63, N-{4-[2-(4-fluorophenyl)-7-methyl-6,7-dihydro-5H-pyrazolo[5,1-b][1,3]oxazin-3-yl]pyridin-2-yl}propanamide], the efficacy was 94% in [1] (500 ppm of active ingredient, wheat, preventive spray, evaluated 21 days after inoculation); 80% in data set [2] (500 ppm of active ingredient, wheat, preventive spray, evaluated 7-9 days after inoculation); 95% in [3] (100 ppm of active ingredient, tomatoes, preventive spray, evaluated 3 days after inoculation); 100% in [5]; 95% in [7] (500 ppm of active ingredient, cucumber, preventive spray, evaluated 7 days after inoculation); 95% in data set [8] (100 ppm of active ingredient, grapevines, preventive spray, evaluated 6 days after inoculation). The efficacy in [10] (500 ppm of active ingredient, barley, preventive spray, evaluated 7-9 days after inoculation) is recorded as 100%; in [12], 100%; in data set [13] (500 ppm of active ingredient, barley, preventive spray, evaluated 5 days after inoculation), 88%; in [15] (500 ppm of active ingredient, rice, preventive spray, evaluated 7 days after inoculation), 95%. For the same compound, the chromatographic logP is 1.61 in [9] (Method A: HPLC, reverse phase C18, acetonitrile (0.1% formic acid)/water (0.09% formic acid) gradient, read-out: LogP) and 1.61 in data set [9] (pH 2.7, values in the synthesis examples, HPLC, reverse phase C18, read-out: log P (pH 2.7)).
On to `CC(=O)Nc1cc(-c2c(-c3cccs3)nn3c2OC[Si](C)(C)C3)ccn1` [Example 85], for which the efficacy is reported as 86% in data set [1] (in vivo); 78% in data set [2] (in vivo); 95% in data set [3] (in vivo); 100% in data set [5]; 90% in [6]; 97% in data set [8] (in vivo). Besides, the efficacy in data set [10] (in vivo) is 95%; in data set [12], 97%; in data set [13] (in vivo) it was 71%; in data set [15] (in vivo) it was 90%. The compound further gave a log partition coefficient (LogP) in [9] (Method C (HPLC, reverse phase C18)) of 1.74. Moreover, the “Inhibition of DON/AcDON in %” value in data set [14] (50 µM) amounted to 99%.
In the case of `CC(C)C(=O)Nc1cc(-c2c(-c3ccc(F)cc3)nn3c2OCCC3C)ccn1` (centres unmarked) [Example 62], the efficacy in data set [1] (in vivo) was 75%; in data set [2] (in vivo) it was 90%; in data set [3] (in vivo), 95%; in [5], 100%; in data set [7] (in vivo), 100%; in [8] (in vivo) it was 100%. The efficacy in [10] (in vivo) turned out to be 95%; in data set [11], 78%; in data set [12] it was 100%; in data set [13] (in vivo), 100%; in data set [15] (in vivo) it was 95%. Also, the “Growth inhibition … in %” value in data set [4] stood at 86%. This compound showed a LogP in data set [9] (setting [16]) of 1.86. The “Inhibition of DON/AcDON in %” value in data set [14] (at 50 μM) is given as 99%.

For the origin of these results see patent US9023844B2, “Heterocyclylpyri (mi) dinylpyrazole as fungicidals” (Bayer Intellectual Property GmbH, priority 2011, dated 2015).
